Earlier results, collected in patent US20220082565A1, “THE FGF19-CHOLESTYRAMINE (F-CME) TEST AS A TWO-STAGE METHOD FOR ROUTINE CANCER SCREENING” (UNIVERSITY OF CENTRAL FLORIDA RESEARCH FOUNDATION, INC., priority 2020, published 2022).

Tested on: FGF19 transcripts
Settings: physiological concentrations of bile acids, explants of ileal mucosa

| Compound | stimulation of human FGF19 transcripts |
| --- | --- |
| C[C@H](CCC(=O)O)[C@H]1CC[C@H]2[C@@H]3[C@H](O)C[C@@H]4C[C@H](O)CC[C@]4(C)[C@H]3CC[C@]12C [chenodeoxycholic acid] | approximately 300 fold |
| CC(CCC(=O)NCC(=O)O)C1CCC2C3C(O)CC4CC(O)CCC4(C)C3CCC12C (centres unmarked) [glycochenodeoxycholic acid] | approximately 300 fold |
